Measured values as given in patent US7572777B2, “Florfenicol prodrug having improved water solubility” (Schering-Plough Animal Health Corp., priority 2003, dated 2009).

Assays:
[1] = Conversion of florfenicol phosphate to florfenicol in cattle (plasma florfenicol after iv dosing); format: in vivo; details: calves, approximately 10 mg/kg, HPLC-MS/MS (FIG. 2)
Source text: […]. Each symbol denotes the data from a different calf.

[2] = Conversion of florfenicol phosphate to florfenicol in swine (plasma florfenicol after iv dosing); format: in vivo; details: pigs, approximately 6.7 mg/kg (FIG. 4)
Protocol: FIG. 4 is a graphic presentation of florfenicol concentrations in the plasma of pigs following intravenous administration of florfenicol phosphate ester. The plot depicts florfenicol concentrations detected in the plasma of three pigs following intravenous administration of the florfenicol phosphate ester prodrug at a dose of approximately 6.7 mg/kg of body weight, which equates to a florfenicol equivalent dose of 5 mg/kg. Each symbol denotes the data from a different pig.
[…]. Plasma samples were collected after drug administration and analyzed for concentrations of florfenicol. […].

[3] = physchem; format: physicochemical
Protocol: Successive aliquots of solid phosphate ester prodrug (sodium salt) were added to water with agitation. Addition was continued until mixing became difficult due to high viscosity, at which point all of the prodrug remained in solution.

[4] = Conversion of florfenicol phosphate to florfenicol in dogs (plasma florfenicol after iv dosing); format: in vivo; details: approximately 11 mg/kg, HPLC-MS/MS (FIG. 3)
Protocol: . The plot depicts florfenicol concentrations in the plasma of three dogs following intravenous administration of the florfenicol phosphate ester prodrug at a dose of approximately 11.1 mg/kg of body weight, which equates to a florfenicol equivalent dose of 8.3 mg/kg. Each symbol denotes the data from a different dog.

[5] = Stability of the phosphate prodrug in aqueous solutions; format: physicochemical; details: for % Compound B (cyclic phosphate formed) / % Compound C (free florfenicol formed) / % Compound A: 40° C., 30 days under nitrogen; for % Compound A: initial purity 98.3%
Source text: Although relatively stable in aqueous solutions, over prolonged periods of time the phosphate ester of florfenicol (Formula I) undergoes slow degradation resulting in the release of free florfenicol as well as the formation of cyclic phosphate diester. The formation of the cyclic diester occurs through the phosphate anion displacement of fluorine and requires participation of the phosphate di-anion, which is much more nucleophilic than the corresponding mono-anion. Therefore, the rate of formation of the cyclic diester is largely dependent on the pH of the solution or more generally, on the degree of the phosphate ionization. […]. However, even such small changes of pH result in noticeable differences of the amount of the cyclic phosphate diester formed.

[6] = Conversion of prodrug to florfenicol in bovine serum; details: 37° C., after 4 hours (FIG. 1)
[7] = Conversion of prodrug to florfenicol in rat serum; details: 37° C., after 4 hours (FIG. 1)
[8] = listed as Florfenicol phosphate
[9] = pH 4.48 adjusted with ethanolamine, 300 mg/mL active florfenicol
[10] = pH 4.54, aqueous solution 300 mg/mL active florfenicol
[11] = pH 4.95, aqueous solution 300 mg/mL active florfenicol
[12] = pH 5.03 adjusted with ethanolamine, 300 mg/mL active florfenicol
[13] = pH 5.51 adjusted with ethanolamine, 300 mg/mL active florfenicol
[14] = pH 5.53, aqueous solution 300 mg/mL active florfenicol

Compound: CS(=O)(=O)c1ccc([C@@H](OP(=O)(O)O)[C@@H](CF)NC(=O)C(Cl)Cl)cc1 [florfenicol phosphate ester]
- plasma florfenicol concentrations following treatment [1]: substantial concentrations of florfenicol were detected
- plasma florfenicol concentrations following treatment [1, 8]: increased rapidly
- plasma florfenicol concentrations following treatment [2]: substantial concentrations of florfenicol were detected
- plasma florfenicol concentrations following treatment [2, 8]: increased rapidly
- solubility ([3]; water, thermodynamic from solid): > 600 mg/mL
- plasma florfenicol concentrations following treatment [4]: substantial concentrations of florfenicol were detected
- plasma florfenicol concentrations following treatment [4, 8]: increased rapidly
- stability in aqueous solution versus pH ([5]; below pH 4 or at neutral or higher pH ranges): less stable
- stability of aqueous solutions of the prodrug ([5]; close to one equivalent of sodium hydroxide or ethanolamine added to concentrated aqueous solution, approximately pH 4.5 to pH 5.5): Satisfactory stability
- effect of ionic strength on aqueous stability ([5]; increased ionic strength): reduces the aqueous stability
- % Compound B (cyclic phosphate formed) [5, 9]: 0.18%
- % Compound C (free florfenicol formed) [5, 9]: 0.92%
- % Compound A [5, 9]: 93.43%
- % Compound B (cyclic phosphate formed) [5, 10]: 0.17%
- % Compound C (free florfenicol formed) [5, 10]: 1.02%
- % Compound A [5, 10]: 94.40%
- % Compound B (cyclic phosphate formed) [5, 11]: 0.37%
- % Compound C (free florfenicol formed) [5, 11]: 1.01%
- % Compound A [5, 11]: 93.38%
- % Compound B (cyclic phosphate formed) [5, 12]: 0.58%
- % Compound C (free florfenicol formed) [5, 12]: 0.86%
- % Compound A [5, 12]: 95.83%
- % Compound B (cyclic phosphate formed) [5, 13]: 1.25%
- % Compound C (free florfenicol formed) [5, 13]: 0.70%
- % Compound A [5, 13]: 93.83%
- % Compound B (cyclic phosphate formed) [5, 14]: 1.41%
- % Compound C (free florfenicol formed) [5, 14]: 0.93%
- % Compound A [5, 14]: 93.06%

Compound: CS(=O)(=O)c1ccc([C@@H](OC(=O)CCCC(=O)O)[C@@H](CF)NC(=O)C(Cl)Cl)cc1 [glutarate ester of florfenicol]
- conversion (hydrolysis) to florfenicol [6]: approximately 6%
- conversion (hydrolysis) to florfenicol [7]: about 3%

Compound: CS(=O)(=O)c1ccc([C@@H](OP(=O)([O-])[O-])[C@@H](CF)NC(=O)C(Cl)Cl)cc1.[Na+].[Na+] [sodium salt of florfenicol phosphate, [1R, 2S-1-(4-Methanesulfonylphenyl)-2-(2,2-dichloroacetylamino)-3-fluoropropyl]phosphate disodium salt]
- aqueous solubility (original concentration by HPLC) [3]: greater than 700 mg/mL
- conversion of the prodrug into cyclic diester ([5]; heating a solution of the bis sodium salt): almost quantitative conversion
